# How the values were obtained:
# [1] = tested on: C. tropicalis (ATCC strain 750); test: Antifungal microdilution broth assay (PrestoBlue), C. tropicalis; type: cell-based; settings: Candida tropicalis, ATCC750; Table 5
# Experimental: (§1) Sigma-Aldrich) was used as the base medium for testing. […] solution of morpholinepropanesulfonic acid (MOPS; Sigma-Aldrich) was added to the RPMI to a final concentration of 0.165 M for buffering (RPMI-MOPS). This medium was adjusted to a pH of 7.0 with 10 M NaOH and filter sterilized. C. albicans (ATCC strain 90028), C. [NT] strain 66032), and C. tropicalis (ATCC strain 750) were cultured on potato dextrose agar (Sigma-Aldrich) plates, and incubated at 35° C. for 24 hours. For antifungal testing, overnight colonies were adjusted to 1.5×10^3 cells/mL, hereafter referred to as the test inoculum. […] Reduction of the compound from resazurin to resorufin is proportional to the number of metabolically active cells and can be quantified by measuring relative fluorescence units (RFUs). […] PrestoBlue was added to a final concentration of 10% in each well and fluorescence read at 560 nm excitation and 590 nm emission, per manufacturer instructions, using a SpectraMax M2e spectrophotometer (Molecular Devices, LLC, Sunnyvale, Calif.). […] The calculated Z', as described below, was compared to RFU readings and the optimal PrestoBlue incubation time was determined to be 75 minutes. IC50 determination was calculated using GraphPad Prism version 7.01 for Windows (GraphPad Software, Inc., La Jolla, Calif.) from the RFUs at dilution points. […]
# [2] = tested on: C. glabrata (ATCC strain 66032); test: Antifungal microdilution broth assay (PrestoBlue), C. glabrata; type: cell-based, Candida glabrata; settings: Nakaseomyces glabratus, ATCC66032; Table 5
# Experimental: as §1
# IKKβ, IκBα, p65 = test: Western blot, IKK / IκBα / p65 phosphorylation, RAW 264.7; settings: 12.5, 25, 50 μM, LPS 15 min, dose-dependent
# Experimental: (§2) U0126 is a compound that inhibits MEK1/2 and was used as positive control for ERK phosphorylation inhibition (Hotokezaka, Sakai et al. 2002). Cells were lysed with radio-immunoprecipitation assay (RIPA) lysis buffer that contained a protease and phosphatase inhibitor cocktail. Cell lysates were then tested for protein concentration using a BCA protein assay and diluted with RIPA lysis buffer to normalize protein concentration in all samples. Lysates were mixed with sample loading buffer containing bromophenol blue, glycerol, SDS, and 2-mercaptoethanol. The separated proteins were then transferred onto a nitrocellulose membrane and blocked with 5% BSA in IX Tris-buffered saline with 0.1% Tween-20 for 1 h. The blots were incubated with primary antibodies at 4° C. overnight followed by incubation with HRP-conjugated secondary antibodies for 2 h at 22° C. The membranes were developed by addition of ECL substrate and images were collected with a ChemiDoc XRS+ system chemiluminescence imager (Bio-Rad, Hercules, Calif., USA). Western blot band intensity was quantified using Image Lab software (Bio-Rad, Hercules, Calif., USA). […]
# NF-κB-dependent promoter = test: pNF-κB-Luc luciferase assay, RAW 264.7; type: cell-based, murine; settings: 50 μM, 1 h pre-treatment, LPS 6 h, RAW264.7
# Experimental: Cells were lysed in 250 μl/well of luminometry lysis buffer [25 mM Tris-phosphate, 1%(w/v) BSA, 0.025%(w/v) dithiothreitol (DTT), 1% Triton X-100, 15%(v/v) glycerol, 0.1 mM EDTA, 8 mM MgCl2, 1× protease inhibitor cocktail, and 1 mM phenylmethylsulfonyl fluoride] and incubated on a shaking table at 200 rpm for 15 min. A volume of 10 μl of 25 mM ATP was added to each well, and the samples were transferred in duplicates of 100 μl to an opaque-white 96-well plate. A volume of 20 μl of 10 mM sodium pyrophosphate was added to each well prior to the addition of 100 μl of 2 mM D-luciferin. Luminescence was quantified using a SpectraMax M5 plate reader using SoftMax Pro 6.3 software (Molecular Devices, Sunnyvale, Calif., USA).
# [3] = tested on: PMA-differentiated THP-1 cells; test: Alamar Blue cell viability assay, THP-1; type: cell-based, human
# Experimental: THP-1 cells were maintained in RPMI 1640 medium supplemented with 10% heat-inactivated FBS and 1% penicillin/streptomycin (complete culture medium) at 37° C. with 5% CO2 supplemented. Cell concentrations were adjusted to desired concentrations for each experiment by centrifugation at 500×g for 5 min and resuspended in complete culture medium with 100 nM of PMA. Cell concentration was adjusted to 5×10^5 cells/ml for all assays with the exception of 2.5×10^5 cells/ml were used for NF-κB nuclear translocation assay. Cells were seeded onto 96-, 24-, or 12-well plates and incubated for 48 to 72 h to allow for differentiation. Cells were washed with serum-free RPMI 1640 medium before each experiment to remove undifferentiated cells. […] Cells were seeded into tissue culture plates at 10% confluence and grown to 80% confluence within 72 h. For live cell microscopy, 1×10^5 cells/ml were seeded into 35 mm glass-bottom (MatTek) dishes 24 h prior to imaging. For luciferase assays, 1.2×10^5 cells/well were seeded into 24-well tissue culture-treated plates.
# Following treatment, the relative cell viability was measured by Alamar Blue assay. For Alamar Blue assays, supernatants were replaced with culture medium containing 1× Alamar Blue reagent and incubated overnight. Cell viability was assessed by measuring relative fluorescent units (RFU) on the SpectraMax M2e microplate reader (Molecular Devices Inc., Sunnyvale, Calif., USA) at Ex 560 nm and Em 590 nm. The results were expressed as a percentage relative to LPS alone control cells. The effects of the vehicle control, DMSO, on cell viability were also assessed.
# Dexamethasone is a synthetic glucocorticoid that suppresses LPS-induced pro-inflammatory cytokine expression and was used as a control (Abraham, Lawrence et al. 2006). Supernatants were collected for human cytokine ELISAs and the manufacturer's protocol was followed to assess the cytokine response. Cells remaining after the supernatant collection were tested for relative viability by Alamar Blue cytotoxicity assay as previously described.
# ERK, JNK, p38 = test: Western blot, MAPK phosphorylation, THP-1; settings: LPS 15 min
# Experimental: as §2
Compound,IC50 [1] [µM],IC50 [2] [µM],"phosphorylation of IKKβ, IκBα and p65 (IKKβ, IκBα, p65)",LPS-induced luciferase expression (pNF-κB-Luc) (NF-κB-dependent promoter),THP-1 cell viability (Alamar Blue) ([3]; 100 μM with LPS),"THP-1 cell viability (Alamar Blue) ([3]; 20, 40, 80 μM with LPS for 4 h)","Average % Viability (4 h with LPS) ([3]; THP-1 cells, 20 μM, 4 h with LPS, mean ± SD) [%]","phosphorylation of ERK, JNK, or p38 (ERK, JNK, p38)"
"COc1ccc(/C=C2\Oc3c(ccc(O)c3O)C2=O)cc1O [Aurone 1009, (Z)-6,7-dihydroxy-2-(3-hydroxy-4-methoxybenzylidene)benzofuran-3(2H)-one]",10,11,–,–,–,–,–,–
O=C1/C(=C/c2ccc(CO)o2)Oc2ccccc21 [aurone 1],–,–,suppress the phosphorylation of all three proteins,significantly inhibit LPS-induced luciferase expression,less than 90%,no effect on cell viability,96.0 ± 0.6,no statistically significant effect
